In patent publication US11166942B2 (PRAXIS BIOTECH LLC, priority 2018, dated 2021):

Legend:
[1] = system: fasted Balb/c mice, quadriceps; experiment: Fasting-induced muscle atrophy; format: in vivo, mouse; conditions: 10 mg/kg oral
Experimental: (§1) Wild type eight-weeks-old male Balb/c mice obtained from the vivarium Fundación Ciencia & Vida Chile (Santiago, Chile) were used. Mice were housed in independent plastic cages in a room maintained at 25° C. with a 12-h:12-h light:dark cycle.
Twenty-four hours before and during the 2 days of fasted procedures, animals were weighed and receive oral administration via feeding tubes (15 gauge) of vehicle (50% Polyethylene glycol 400 (Sigma-Aldrich P3265) in distilled water or 10 mg/kg of test compound formulated in vehicle solution.
After 2 days of fasting the animals were weighed and sacrificed. Quadriceps were removed from both hindlimbs and weighed. Mice with feed and water ad libitum were used as control. […]
Upon collection, muscles were immediately frozen in liquid nitrogen and then stored at −80° C. […] Protein concentration in supernatants was determined using BCA Protein Assay Kit (Pierce). […]
Puromycin (12D10) (Merck Millipore) ATF4 (Abcam), Atrogin-1 (ECM Biosciences), MuRF-1 (Santa Cruz Biotechnology) and β-actin (Sigma-Aldrich) antibodies were used as primary antibodies. […] Quantification of protein bands was done by densitometry using ImageJ software. […]

[2] = system: Balb/c mice with denervated hind limb, tibialis anterior; experiment: Denervation-induced muscle atrophy; format: in vivo, mouse
Experimental: as §1
After a deeply anesthetized (isoflurane inhaled in medical oxygen), mice were denervated by surgical removal of ˜2 mm of sciatic nerve from one hindlimb. The incisions were closed using sutures. All procedures were performed under sterile conditions and the mice were daily monitored.
After seven days of denervation, animals receive oral administration every day via feeding tubes (15 gauge) of vehicle (50% Polyethylene glycol 400 (Sigma-Aldrich P3265) in distilled water) or 10 mg/kg of compound 58 formulated in vehicle solution.
After 14 days of denervation, animals were sacrificed and tibialis anterior were removed from both hindlimbs. Muscles derived from non-denervated hind limb were used as control.
Upon collection, muscles were immediately frozen in liquid nitrogen and stored at −80° C. The frozen muscles were then homogenized with a T 10 basic ULTRA-TURRAX (IKa) in ice-cold buffer lysis (Cell Signaling 9803) and protease and phosphatase inhibitors (Roche). Lysates were sonicated for 3 min and centrifuged at 13,000 rpm for 20 minutes at 4° C. Protein concentration in supernatants was determined using BCA Protein Assay Kit (Pierce). Equal amount of protein was loaded on SDS-PAGE gels. […]
ATF4 (Abcam), Atrogin-1 (ECM Biosciences), MuRF-1 (Santa Cruz Biotechnology) and R-actin (Sigma-Aldrich) antibodies were used as primary antibodies. […] Quantification of protein bands was done by densitometry using ImageJ software.
Expression of ATF4 and the muscle atrophy markers, Atrogin-1 and MuRF-1, of tibialis anterior derived from control and denervated hind limbs of mice treated with vehicle or compound 58 are shown in FIG. 11A. […] The levels were normalized to pi-actin expression and percentage was calculated as the percent relative to the expression of non-denervated hind limbs from control mice (Vehicle) which corresponds to 100%. […]

O=C(NN1CCN(C[C@@H](O)COc2ccc(Cl)c(F)c2)CC1)c1ccc2cc(Cl)ccc2n1 [Compound 58, (R)-6-chloro-N-(4-(3-(4-chloro-3-fluorophenoxy)-2-hydroxypropyl)piperazin-1-yl)quinoline-2-carboxamide]
reduction: ATF4 expression in quadriceps ([1]; vs vehicle-treated fasted mice (FIG. 8F)) | Atrogin-1 expression in quadriceps ([1]; vs vehicle-treated fasted mice (FIG. 8G)) | ATF4 expression in tibialis anterior ([2]; 10 mg/kg oral every day from day 7 to 14, vs vehicle (FIG. 11B)) | Atrogin-1 expression in tibialis anterior ([2]; 10 mg/kg oral every day from day 7 to 14, vs vehicle (FIG. 11C)) | MuRF-1 expression in tibialis anterior ([2]; 10 mg/kg oral every day from day 7 to 14, vs vehicle (FIG. 11D))
